Source: patent US9187496B2 (priority 2009, dated 2015)
Like-named read-outs stand apart in the source and are kept apart here.

What was measured:
[1] = tested on: Huh-7 cells containing HCV Con1 subgenomic replicon (GS4.1 cells); test: HCV replicon assay (NS5A ELISA); type: cell-based
Experimental: General Procedure: Huh-7 cells containing HCV Con1 subgenomic replicon (GS4.1 cells) were grown in Dulbecco's Modified Eagle Medium (DMEM) supplemented with 10% fetal bovine serum (FBS), 2 mM L-glutamine, 110 mg/L sodium pyruvate, 1× non-essential amino acids, 100 U/mL penicillin-streptomycin, and 0.5 mg/mL G418 (Invitrogen). For dose-response testing, the cells were seeded in 96-well plates at 7.5×10^3 cells/well in a volume of 50 μL, and incubated at 37° C./5% CO2. Three hours after plating, 50 μL of ten 2-fold serial dilutions of compounds (highest concentration, 75 μM) were added, and cell cultures were incubated at 37° C./5% CO2 in the presence of 0.5% DMSO. Alternatively, compounds were tested at a single concentration of 15 μM. In all cases, Huh-7 cells lacking the HCV replicon served as negative control. The cells were incubated in the presence of compounds for 72 hrs after which they were monitored for expression of the NS5A protein by enzyme-linked immunosorbent assay (ELISA). For this, the plates were then fixed for 1 min with acetone/methanol (1:1, v/v), washed twice with phosphate-buffered saline (PBS), 0.1% Tween 20, blocked for 1 hr at room temperature with TNE buffer containing 10% FBS and then incubated for 2 hr at 37° C. with the anti-NS5A mouse monoclonal antibody A-236 (ViroGen) diluted in the same buffer. After washing three times with PBS, 0.1% Tween 20, the cells were incubated 1 hr at 37° C. with anti-mouse immunoglobulin G-peroxidase conjugate in TNE, 10% FBS. After washing as described above, the reaction was developed with O-phenylenediamine (Zymed). The reaction was stopped after 30 min with 2 N H2SO4, and absorbance was read at 492 nm using Sunrise Tecan spectrophotometer. EC50 values were determined from the % inhibition versus concentration data using a sigmoidal non-linear regression analysis based on four parameters with Tecan Magellan software.

GS4.1 cells = test: Cytotoxicity evaluation in GS4.1 cells (Cell Titer 96 AQueous One); type: cell-based, human; settings: cellular viability
Experimental: For cytotoxicity evaluation, GS4.1 cells were treated with compounds as described above and cellular viability was monitored using the Cell Titer 96 AQueous One Solution Cell Proliferation Assay (Promega). CC50 values were determined from the % cytotoxicity versus concentration data with Tecan Magellan software as described above.

[2] = Hepatitis C virus, Huh-7, GS4.1 cells, 72 hrs, NS5A ELISA, read-out: EC50
[3] = GS4.1 cells, 72 hrs, NS5A ELISA, read-out: EC50

Structure (SMILES) | EC50 [1, 2] [nM] | CC50 (GS4.1 cells) [µM] | EC50 [1, 3] [nM] | EC50 ([1]; Hepatitis C virus, Huh-7, 72 h) [nM]
COC(=O)N[C@H](C(=O)N1CCC[C@H]1C(=O)Nc1cn2cc(-c3ccc(-c4cnc([C@@H]5CCCN5C(=O)[C@@H](NC(=O)OC)C(C)C)[nH]4)cc3)sc2n1)C(C)C [Compound A2, (S,S,S,S)-(1-{2-[2-(4-{2-[1-(2-methoxycarbonylamino-3-methyl-butyryl)-pyrrolidin-2-yl]-3H-imidazol-4-yl}-phenyl)-imidazo[2,1-b]thiazol-6-ylcarbamoyl]-pyrrolidine-1-carbonyl}-2-methyl-propyl)-carbamic acid methyl ester] | 1 to 10 | 10 to 75 | – | –
CC(C)(C)OC(=O)N[C@@H](C(=O)N1CCC[C@H]1C(=O)Nc1cn2cc(-c3ccccc3)sc2n1)c1ccccc1 [A27] | 10 to 100 | > 75 | – | –
CC(C)(C)OC(=O)N[C@@H](C(=O)N1CCC[C@H]1C(=O)Nc1cn2cc(C#Cc3ccccc3)sc2n1)c1ccccc1 [Compound A23] | > 100 | 10 to 75 | – | –
COC(=O)N[C@H](C(=O)N1CCCC1c1ncc(-c2ccc(-c3csc4c(-c5cnc(C6CCCN6C(=O)OC(C)(C)C)[nH]5)csc34)cc2)[nH]1)C(C)C (stereo partly drawn) [A151] | – | 10 to 75 | < 1 | –
COC(=O)N[C@H](C(=O)N1CCC[C@H]1c1ncc(-c2ccc(-c3cn4cc(NC(=O)[C@@H]5CCCN5C(=O)[C@H](NC(=O)OC(C)C)c5ccccc5)nc4s3)cc2)[nH]1)C(C)C [A56] | < 1 | > 75 | – | –
COC(=O)N[C@H](C(=O)N1CCC[C@H]1c1ncc(-c2ccc(-c3cn4cc(NC(=O)[C@@H]5CCCN5C(=O)[C@H](NC(=O)OC)c5ccccc5)nc4s3)cc2)[nH]1)C(C)C [Compound A30, (S,S,S,R)-[1-(2-{5-[4-(6-{[1-(2-methoxycarbonylamino-2-phenyl-acetyl)-pyrrolidin-2-carbonyl]-amino}-imidazo[2,1-b]thiazol-2-yl)-phenyl]-1H-imidazol-2-yl}-pyrrolidine-1-carbonyl)-2-methyl-propyl]-carbamic acid methyl ester] | < 1 | > 75 | – | –
CC(C)(C)OC(=O)N[C@@H](C(=O)N1CCOC[C@H]1C(=O)Nc1cn2cc(-c3ccccc3)sc2n1)c1ccccc1 [Compound A22] | > 100 | > 75 | – | –
COC(=O)N[C@H](C(=O)N1CCCC1c1nc(-c2ccc(-c3sc4cc(-c5ccc(-c6cnc([C@@H]7CCCN7C(=O)[C@@H](NC(=O)OC)C(C)C)[nH]6)cc5)sc4c3-c3ccc(-c4cnc(C5CCCN5C(=O)[C@@H](NC(=O)OC)C(C)C)[nH]4)cc3)cc2)c[nH]1)C(C)C (stereo partly drawn) [A105] | – | 10 to 75 | – | 10 to 100
COC(=O)N[C@H](C(=O)N1CCCC1c1ncc(-c2ccc(-c3csc4c(-c5cnc(C6CCCN6C(=O)OCc6ccccc6)[nH]5)csc34)cc2)[nH]1)C(C)C (stereo partly drawn) [A49] | < 1 | > 75 | – | –
COC(=O)N[C@H](C(=O)N1CCCC1c1ncc(-c2ccc(-c3cn4ccsc4n3)cc2)[nH]1)C(C)C (stereo partly drawn) [A160] | 10 to 100 | > 75 | – | –
COC(=O)N[C@H](C(=O)N1CCC[C@H]1c1ncc(-c2ccc(-c3cn4cc(NC(=O)[C@@H]5CCCN5C(=O)[C@H](NC(=O)OC(C)(C)C)c5ccccc5)nc4s3)cc2)[nH]1)C(C)C [Compound A1, (S,S,S,R)-[1-(2-{5-[4-(6-{[1-(2-tert-butoxycarbonylamino-2-phenyl-acetyl)-pyrrolidine-2-carbonyl]-amino}imidazo[2,1-b]thiazol-2-yl)-phenyl]-1H-imidazol-2-yl}pyrrolidine-1-carbonyl)-2-methyl-propyl]-carbamic acid methyl ester] | < 1 | > 75 | – | –
COC(=O)N[C@H](C(=O)N1CCC[C@H]1C(=O)Nc1cn2cc(-c3ccc(NC(=O)CNC(=O)[C@H](NC(=O)OC(C)(C)C)c4ccccc4)cc3)sc2n1)C(C)C [A147] | 10 to 100 | > 75 | – | –
COC(=O)N[C@H](C(=O)N1CCCC1c1ncc(-c2ccc(-c3cn4c(-c5ccccc5)csc4n3)cc2)[nH]1)C(C)C (stereo partly drawn) [A162] | 1 to 10 | 10 to 75 | – | –
COC(=O)N[C@H](C(=O)N1CCC[C@H]1c1ncc(-c2ccc(-c3cn4cc(NC(=O)CNC(=O)[C@H](NC(=O)OC(C)(C)C)c5ccccc5)nc4s3)cc2)[nH]1)C(C)C [A148] | 1 to 10 | > 75 | – | –
COC(=O)N[C@H](C(=O)N1CCCC1c1ncc(-c2csc3c(-c4ccc(-c5cnc(C6CCCN6C(=O)[C@@H](NC(=O)OC)C(C)C)[nH]5)cc4)csc23)[nH]1)c1ccccc1 (stereo partly drawn) [A78] | < 1 | > 75 | – | –
COC(=O)N[C@H](C(=O)N1CCCC1c1ncc(-c2cn3cc(-c4ccc(-c5cnc([C@@H]6CCCN6C(=O)[C@@H](NC(=O)OC)C(C)C)[nH]5)cc4)nc3s2)[nH]1)C(C)C (stereo partly drawn) [A7] | < 1 | > 75 | – | –
COC(=O)N[C@H](C(=O)N1CCC[C@H]1c1ncc(-c2ccc(-c3cn4cc(NC(=O)[C@@H]5CCCN5C(=O)[C@H](NC(=O)OCC(C)C)c5ccccc5)nc4s3)cc2)[nH]1)C(C)C [A57] | – | > 75 | < 1 | –
COC(=O)N[C@H](C(=O)N1CCCC1c1nc(-c2ccc(-c3cn4cc(-c5ccc(-c6cnc([C@@H]7CCCN7C(=O)[C@@H](NC(=O)OC)C(C)C)[nH]6)cc5)sc4n3)cc2)c[nH]1)C(C)C (stereo partly drawn) [A93] | < 1 | > 75 | – | –
COC(=O)N[C@H](C(=O)N1CCCC1c1ncc(-c2ccc(-c3csc4cc(C(=O)OC)[nH]c34)cc2)[nH]1)C(C)C (stereo partly drawn) [A164] | 10 to 100 | 10 to 75 | – | –
CC(C)(C)OC(=O)Nc1ccc(-c2cn3cc(NC(=O)[C@@H]4CCCN4C(=O)[C@H](NC(=O)OC(C)(C)C)c4ccccc4)nc3s2)cc1 [A29] | > 100 | 10 to 75 | – | –
COC(=O)N[C@H](C(=O)N1CCCC1c1ncc(-c2ccc(-c3cc4sc(Br)cc4s3)cc2)[nH]1)C(C)C (stereo partly drawn) [A168] | 10 to 100 | 10 to 75 | – | –
COC(=O)N[C@H](C(=O)N1CCC[C@H]1c1cc(-c2ccc(-c3cn4cc(NC(=O)[C@@H]5CCCN5C(=O)[C@H](NC(=O)OC(C)C)c5ccccc5)nc4s3)cc2)[nH]n1)C(C)C [A156] | < 1 | > 75 | – | –
COC(=O)N[C@H](C(=O)N1CCC[C@H]1c1ncc(-c2csc3c(-c4cnc([C@@H]5CCCN5C(=O)[C@@H](NC(=O)OC)C(C)C)[nH]4)csc23)[nH]1)C(C)C [Compound A82, ((S)-1-{(S)-2-[5-(6-{2-[(S)-1-((S)-2-methoxycarbonylamino-3-methyl-butyryl)-pyrrolidin-2-yl]-3H-imidazol-4-yl}-thieno[3,2-b]thiophen-3-yl)-1H-imidazol-2-yl]-pyrrolidine-1-carbonyl}-2-methyl-propyl)-carbamic acid methyl ester] | < 1 | 10 to 75 | – | –
COC(=O)N[C@H](C(=O)N1CCCC1c1ncc(-c2ccc(-c3csc4c(-c5cnc(C6CCCN6C(=O)[C@@H](NC(=O)OC(C)(C)C)C(C)C)[nH]5)csc34)cc2)[nH]1)C(C)C (stereo partly drawn) [A76] | < 1 | > 75 | – | –
COC(=O)N[C@H](C(=O)N1CCCC1c1nc(-c2ccc(-c3cc4sc(-c5ccc(-c6cnc([C@@H]7CCCN7C(=O)[C@@H](NC(=O)OC)C(C)C)[nH]6)cc5)cc4s3)cc2)c[nH]1)C(C)C (stereo partly drawn) [A159] | < 1 | > 75 | – | –
COC(=O)N[C@H](C(=O)N1CCCC1c1ncc(-c2ccc(-c3csc4c(-c5ccccc5)csc34)cc2)[nH]1)C(C)C (stereo partly drawn) [A103] | 1 to 10 | 10 to 75 | – | –
COC(=O)N[C@H](C(=O)N1CCC[C@H]1c1ncc(-c2ccc(-c3cn4cc(NC(=O)C5CCCN5C(=O)CNC(=O)OC(C)(C)C)nc4s3)cc2)[nH]1)C(C)C (stereo partly drawn) [A31] | 10 to 100 | > 75 | – | –
